Source: patent US20230241226A1, “COMPOUNDS FOR TARGETED DEGRADATION OF CARRIER PROTEINS AND USES THEREOF” (CeMM - Forschungszentrum für Molekulare Medizin GmbH, priority 2019, published 2023)

Experiments:
Format in all cases: cell-based
Strep/HA SLC9A1 = biological target: T1, Strep/HA SLC9A1 (Homo sapiens, UniProt P19634); assay: Selectivity across SLC9 family: degradation of exogenous Strep/HA SLC9A1; conditions: HAP1; 250 or 750 nM; 16 hours
T1 construct: expressed in transfected cells; host or cells: HAP1 (lentiviral, pRRL Strep-HA; cDNA synthesized by Genescript)
T1 sequence (P19634 whole entry): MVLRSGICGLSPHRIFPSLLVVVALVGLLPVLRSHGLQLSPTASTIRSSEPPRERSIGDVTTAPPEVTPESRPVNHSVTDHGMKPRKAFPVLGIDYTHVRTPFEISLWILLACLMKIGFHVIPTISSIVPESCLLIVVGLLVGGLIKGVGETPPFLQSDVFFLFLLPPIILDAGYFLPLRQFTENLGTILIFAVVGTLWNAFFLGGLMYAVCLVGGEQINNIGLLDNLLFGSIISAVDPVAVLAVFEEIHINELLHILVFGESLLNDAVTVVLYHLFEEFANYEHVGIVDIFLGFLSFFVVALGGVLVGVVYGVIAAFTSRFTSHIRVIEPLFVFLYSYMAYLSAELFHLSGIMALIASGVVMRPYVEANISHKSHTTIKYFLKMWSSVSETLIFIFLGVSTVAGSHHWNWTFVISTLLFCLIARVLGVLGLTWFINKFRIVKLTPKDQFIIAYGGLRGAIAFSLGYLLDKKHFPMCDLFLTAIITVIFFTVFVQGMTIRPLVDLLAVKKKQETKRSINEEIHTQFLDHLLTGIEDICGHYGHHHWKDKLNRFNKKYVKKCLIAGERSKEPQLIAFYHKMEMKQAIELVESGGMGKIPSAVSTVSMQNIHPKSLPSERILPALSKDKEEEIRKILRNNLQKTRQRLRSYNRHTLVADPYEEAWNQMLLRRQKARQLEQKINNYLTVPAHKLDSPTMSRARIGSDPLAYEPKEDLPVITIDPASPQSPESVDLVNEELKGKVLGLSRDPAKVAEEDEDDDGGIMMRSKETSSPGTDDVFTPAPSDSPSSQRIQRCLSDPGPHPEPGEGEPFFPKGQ
Experimental: (§1) (E) Selectivity of d9A1-2 was tested across HAP1 cell lines expressing Strep/HASLC9A1, 9A4, 9A5, 9A8, 9A2, 9B2, 9A6, 9A9, and 9A3. Cells were treated with varying concentrations of d9A1-2 for 16 hours, after which degradation of the exogenous SLCs was monitored.
(§2) SLC1A5, SLC2A1, SLC2A3, SLC16A1, SLC38A1, SLC38A2 were obtained as gateway-compatible pENTR/pDONR vectors from the Harvard PlasmID Repository. SLC39A7 was obtained from Dharmacon, GE Healthcare. The following vectors were synthesized by Genescript: SLC4A4, SLC7A3, SLC38A9, SLC25A1, SLC9A1, SLC9A2, SLC9A3, SLC9A4, SLC9A5, SLC9A6, SLC9A7, SLC9A8, and SLC9B2. SLC30A9, SLC33A1, SLC35B2, SLC25A26, and MTCH2 were a gift from the RESOLUTE consortium. cDNAs were transferred into gateway-compatible lentiviral expression vectors: pLX305 dTAG vectors (Addgene #91797/8) or pRRL Strep-HA (described previously43, EF1a promotor driven expression) using LR recombination (ThermoFisher Scientific). […]
(§3) For immunoblotting, whole cell extracts were prepared using RIPA lysis buffer (25 mM Tris/HCl pH 7.6, 150 mM NaCl, 1% NP-40, 1% sodium deoxycholate, 0.1% SDS, EDTA-free protease inhibitor (Roche) and phosphatase inhibitors 2+3 (Sigma- Aldrich)). […] Protein extracts were quantified and normalized using the BCA assay (Thermo Scientific). […]

Strep/HA SLC9B2 = biological target: T2, Strep/HA SLC9B2 (Homo sapiens, UniProt Q86UD5); assay: Selectivity across SLC9 family: degradation of exogenous Strep/HA SLC9B2; conditions: HAP1; 250 or 750 nM; 16 hours
T2 construct: expressed in transfected cells; host or cells: HAP1 (lentiviral, pRRL Strep-HA; cDNA synthesized by Genescript)
T2 sequence (Q86UD5 whole entry): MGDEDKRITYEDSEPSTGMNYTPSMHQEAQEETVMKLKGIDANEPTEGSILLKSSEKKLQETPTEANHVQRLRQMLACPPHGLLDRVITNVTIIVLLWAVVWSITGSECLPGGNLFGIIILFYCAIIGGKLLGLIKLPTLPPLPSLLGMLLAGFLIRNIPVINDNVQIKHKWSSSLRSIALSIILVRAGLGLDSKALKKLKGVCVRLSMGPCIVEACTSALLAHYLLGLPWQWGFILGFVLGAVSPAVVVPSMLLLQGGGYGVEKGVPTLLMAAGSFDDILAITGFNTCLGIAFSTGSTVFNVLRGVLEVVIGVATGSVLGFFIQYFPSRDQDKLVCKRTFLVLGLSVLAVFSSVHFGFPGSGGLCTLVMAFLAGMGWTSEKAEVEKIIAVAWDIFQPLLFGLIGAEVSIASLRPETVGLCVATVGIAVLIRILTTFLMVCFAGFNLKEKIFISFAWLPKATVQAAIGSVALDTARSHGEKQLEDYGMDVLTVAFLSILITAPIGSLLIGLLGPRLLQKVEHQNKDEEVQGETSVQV
Experimental: as §1, §2, §3

dTAG-HA SLC38A1 = biological target: T3, dTAG-HA SLC38A1 (Homo sapiens, UniProt Q96SW2+Q9H2H9); assay: Targeted degradation of dTAG-tagged SLC38A1 (western blot)
T3 construct: expressed in transfected cells
T3 sequence (Q16531 whole entry): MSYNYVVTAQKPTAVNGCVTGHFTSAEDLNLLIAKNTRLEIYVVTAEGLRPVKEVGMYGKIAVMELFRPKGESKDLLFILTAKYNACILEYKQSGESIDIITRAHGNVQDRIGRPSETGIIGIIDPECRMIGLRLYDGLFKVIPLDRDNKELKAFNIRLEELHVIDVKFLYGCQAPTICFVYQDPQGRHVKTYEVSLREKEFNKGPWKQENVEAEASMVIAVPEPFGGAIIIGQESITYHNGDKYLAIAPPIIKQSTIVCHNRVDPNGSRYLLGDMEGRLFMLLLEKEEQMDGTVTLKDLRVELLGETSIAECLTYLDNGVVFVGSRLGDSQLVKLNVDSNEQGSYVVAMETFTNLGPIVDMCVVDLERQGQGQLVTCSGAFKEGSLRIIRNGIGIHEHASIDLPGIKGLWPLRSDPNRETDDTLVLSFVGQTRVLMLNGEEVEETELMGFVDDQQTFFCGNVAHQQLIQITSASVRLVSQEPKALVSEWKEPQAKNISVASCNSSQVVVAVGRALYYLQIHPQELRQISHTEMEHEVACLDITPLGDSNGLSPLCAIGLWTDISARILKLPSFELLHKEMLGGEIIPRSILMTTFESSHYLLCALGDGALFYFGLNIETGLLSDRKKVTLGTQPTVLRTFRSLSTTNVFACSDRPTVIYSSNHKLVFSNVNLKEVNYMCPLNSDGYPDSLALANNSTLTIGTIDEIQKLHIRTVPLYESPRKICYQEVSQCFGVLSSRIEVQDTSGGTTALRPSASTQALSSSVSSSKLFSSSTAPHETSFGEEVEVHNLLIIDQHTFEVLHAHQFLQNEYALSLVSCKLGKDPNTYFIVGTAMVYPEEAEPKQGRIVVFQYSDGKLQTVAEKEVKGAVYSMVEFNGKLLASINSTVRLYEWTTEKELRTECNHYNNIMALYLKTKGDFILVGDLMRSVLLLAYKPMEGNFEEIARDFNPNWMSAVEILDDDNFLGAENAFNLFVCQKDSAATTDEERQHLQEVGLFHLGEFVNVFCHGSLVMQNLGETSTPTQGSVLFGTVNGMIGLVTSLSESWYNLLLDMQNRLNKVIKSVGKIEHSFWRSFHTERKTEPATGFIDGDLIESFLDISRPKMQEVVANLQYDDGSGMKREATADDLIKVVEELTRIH
T3 sequence (Q9H2H9 other isoform, or with tags, fused parts or gaps): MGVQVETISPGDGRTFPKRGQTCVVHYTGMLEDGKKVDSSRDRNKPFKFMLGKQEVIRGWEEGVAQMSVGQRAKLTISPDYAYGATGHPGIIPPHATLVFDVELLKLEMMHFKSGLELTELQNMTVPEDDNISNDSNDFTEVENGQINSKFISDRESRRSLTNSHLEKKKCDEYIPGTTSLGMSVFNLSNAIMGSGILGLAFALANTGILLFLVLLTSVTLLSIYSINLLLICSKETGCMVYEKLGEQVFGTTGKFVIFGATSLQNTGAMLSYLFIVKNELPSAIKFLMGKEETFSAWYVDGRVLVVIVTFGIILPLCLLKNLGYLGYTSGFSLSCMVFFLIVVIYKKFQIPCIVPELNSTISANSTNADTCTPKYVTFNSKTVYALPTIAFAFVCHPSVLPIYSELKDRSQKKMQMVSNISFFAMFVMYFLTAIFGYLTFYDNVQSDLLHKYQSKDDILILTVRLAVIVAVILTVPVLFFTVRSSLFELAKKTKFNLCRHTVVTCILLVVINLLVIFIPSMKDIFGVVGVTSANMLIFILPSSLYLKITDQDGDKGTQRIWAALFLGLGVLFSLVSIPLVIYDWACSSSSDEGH
T3 sequence (Q96SW2 whole entry): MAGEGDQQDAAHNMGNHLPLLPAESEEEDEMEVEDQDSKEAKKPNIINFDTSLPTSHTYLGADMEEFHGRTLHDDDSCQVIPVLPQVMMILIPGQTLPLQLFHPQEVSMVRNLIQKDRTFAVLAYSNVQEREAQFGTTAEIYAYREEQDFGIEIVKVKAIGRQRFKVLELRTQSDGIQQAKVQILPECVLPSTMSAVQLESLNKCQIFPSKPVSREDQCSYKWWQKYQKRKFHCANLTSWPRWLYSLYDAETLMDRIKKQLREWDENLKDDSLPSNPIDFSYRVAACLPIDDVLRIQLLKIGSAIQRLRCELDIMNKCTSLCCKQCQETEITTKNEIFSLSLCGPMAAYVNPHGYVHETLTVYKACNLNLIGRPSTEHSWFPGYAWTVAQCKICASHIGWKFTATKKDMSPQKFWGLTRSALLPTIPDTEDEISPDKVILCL
Experimental: (A) HAP1 cells expressing dTAG-HA SLC38A9, 38A2, or 38A1 were treated with 0.5 µM dTAG13 for 16, 24 or 48 hours.
as §2, §3
SLCs were ectopically expressed as fusions to a mutated FKBP domain, also known as the dTAG system. […] Each of the tested SLCs was stably expressed in HAP1 cells, and subcellular localization was assessed by immunofluorescence microscopy (FIG. 1B). […]

degradation of exogenous SLC9A1 (Strep/HA SLC9A1)	abundance of exogenous SLC9B2 (Strep/HA SLC9B2)	SMILES	degradation of the target SLC (dTAG-HA SLC38A1; HAP1, dTAG-HA SLC38A1, 0.5 µM, 16, 24 or 48 hours)	degradation of dTAG-HA SLC38A1 (antibodies against HA-tag and total protein) (dTAG-HA SLC38A1; HAP1 or 293T, PNGase de-glycosylated extracts)
most efficient degradation	not significantly affected	Cc1cc(-c2ccc(C(=O)NCCOCCOCCOCCOCCNc3cccc4c3C(=O)N(C3CCC(=O)NC3=O)C4=O)cc2N2CCC(c3[nH]cnc3C)CC2)ccc1F (stereo not shown) [d9A1-2]		
		CC[C@H](C(=O)N1CCCC[C@H]1C(=O)O[C@H](CCc1ccc(OC)c(OC)c1)c1ccccc1OCC(=O)NCCCCCCOc1cccc2c1C(=O)N(C1CCC(=O)NC1=O)C2=O)c1cc(OC)c(OC)c(OC)c1 (stereo partly shown) [dTAG13]	Near-complete degradation	completely degraded
